Measurements from patent publication US7250445B1, “Anti-oxidant suppository for treating radiation proctopathy and other anorectal disorders” (priority 2005, dated 2007).

Tests used:
radiation proctopathy [1] = conditions: topical; cited from earlier work
wound healing = conditions: following burn injury and surgeries; cited from earlier work
[2] = system: radiation-induced anal ulceration; experiment: case of patient with AIDS and anal carcinoma with radiation-induced anal ulceration, oral vitamin A; type: in vivo, human; conditions: single patient
Description: (§1) The present inventor recently described a dramatic case of the patient with AIDS and anal carcinoma with developed a large radiation-induced anal ulceration with marked debility. The patient required high dose opioid therapy for control of anal pain. […] Radiation proctopathy is a form of injury of the rectum from radiation therapy administered for pelvic cancers such as cancers of the prostate, uterus and ovary. The present inventor recently designed, conducted and published a randomized double-blinded trial comparing vitamin A in the form of retinol palmitate (10,000 IU by mouth for 90 days) to placebo in patients with radiation proctopathy. […] The other form of vitamin A, (beta carotene), when applied topically, have the potential to enhance the effectiveness of retinol palmitate for treating radiation proctopathy and other anorectal disorders.

radiation proctopathy [3] = experiment: randomized double-blinded trial of vitamin A versus placebo in patients with radiation proctopathy; type: in vivo, human; conditions: retinol palmitate 10,000 IU by mouth for 90 days versus placebo
Description: as §1

Row | Molecule | efficacy for radiation proctopathy (radiation proctopathy [1]) | wound healing (wound healing) | persistence of healing and symptomatic relief ([2]; after twelve week oral course) | wound healing and symptoms ([2]; twelve week course, orally administered retinol palmitate) | rectal symptoms of radiation proctopathy (radiation proctopathy [3])
1 | Nc1ccc(O)c(C(=O)O)c1 [5-ASA, 5-aminosalicylic acid] | appear to be ineffective |  |  |  | 
2 | CCCCCCCCCCCCCCCC(=O)OC/C=C(C)/C=C/C=C(C)/C=C/C1=C(C)CCCC1(C)C [vitamin A, retinol palmitate] |  | accelerate wound healing | persisted for more than six months | complete wound healing and symptomatic relief | significantly reduced rectal symptoms
3 | sucralfate | appear to be ineffective |  |  |  | 
